pEC50, pIC50: −log10 of the molar value.
Key:
[1] = molecular target: T1, Recombinant human serotonin 5-HT2B receptor (Homo sapiens, UniProt P41595); experiment: Aequorin assay, receptor agonist/antagonist activity, CHO-K1 cells; assay type: cell-based
T1 construct: expressed in transfected cells; host or cells: CHO-K1 cells co-expressing mitochondrial apoaequorin
Experimental: (§1) Compound 5A was synthesized as described above and assayed for receptor activity against a panel of dopaminergic and serotoninergic receptors. Recombinant human receptors serotonin 5-HT2A, 5-HT2B were expressed in CHO-K1 cells and activity (receptor agonist/antagonist activity) was assayed using an Aequorin assay (coexpression of mitochondrial apoaequorin) and Compound 5a at a concentration of 0.10 nM to 20,000 nM for agonist activity and 0.005 nM to 10,000 nM for antagonist activity. […]. The preserved 5-HT2B antagonism activity is hypothesized to a decrease or minimized occurrence of fibrosis (cardiac and non-cardiac) as it is thought that 5-HT2B agonism is responsible for this undesirable side-effect in other iso-ergoline compounds. […]. A decreased agonist activity towards the D3 receptor by Compound 5a is likely to produce minimal or decreased hallucinogenic effects. […].

[2] = molecular target: T2, Recombinant human serotonin 5-HT2A receptor (Homo sapiens, UniProt P28223); experiment: as above; assay type: cell-based
T2 construct: expressed in transfected cells; host or cells: CHO-K1 cells co-expressing mitochondrial apoaequorin
T2 sequence (P28223 whole entry): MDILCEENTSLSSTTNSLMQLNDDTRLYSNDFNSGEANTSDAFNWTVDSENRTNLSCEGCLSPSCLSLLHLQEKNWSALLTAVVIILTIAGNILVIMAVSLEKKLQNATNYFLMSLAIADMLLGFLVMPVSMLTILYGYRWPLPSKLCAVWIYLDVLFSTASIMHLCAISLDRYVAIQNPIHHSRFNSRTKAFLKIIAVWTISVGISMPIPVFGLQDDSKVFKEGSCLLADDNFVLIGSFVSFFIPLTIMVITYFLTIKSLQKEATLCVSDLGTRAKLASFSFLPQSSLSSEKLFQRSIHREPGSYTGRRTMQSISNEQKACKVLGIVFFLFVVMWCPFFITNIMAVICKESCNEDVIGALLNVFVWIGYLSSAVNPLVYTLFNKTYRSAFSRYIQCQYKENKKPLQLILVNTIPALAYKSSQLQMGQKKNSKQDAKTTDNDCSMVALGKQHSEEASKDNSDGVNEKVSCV
Experimental: as §1

[3] = molecular target: Recombinant human serotonin receptor 5-HT1D (Homo sapiens, UniProt P28221); experiment: GTPγS functional assay; assay type: biochemical
Recombinant human serotonin receptor 5-HT1D, sequence (P28221 whole entry): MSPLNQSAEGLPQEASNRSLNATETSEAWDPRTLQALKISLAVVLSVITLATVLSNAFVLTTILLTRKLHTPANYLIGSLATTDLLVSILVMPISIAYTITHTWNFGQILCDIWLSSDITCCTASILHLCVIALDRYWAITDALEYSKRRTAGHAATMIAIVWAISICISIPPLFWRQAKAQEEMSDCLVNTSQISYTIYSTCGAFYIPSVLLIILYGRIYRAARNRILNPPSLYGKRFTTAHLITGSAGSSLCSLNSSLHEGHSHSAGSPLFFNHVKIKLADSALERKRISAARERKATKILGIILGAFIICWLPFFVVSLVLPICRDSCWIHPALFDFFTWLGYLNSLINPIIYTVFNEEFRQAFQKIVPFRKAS

[4] = molecular target: Recombinant human serotonin receptor 5-HT1B (Homo sapiens, UniProt P28222); experiment: GTPγS functional assay; assay type: biochemical; settings: read-out: 5-HT1B agonism, EC50
Recombinant human serotonin receptor 5-HT1B, sequence (P28222 whole entry): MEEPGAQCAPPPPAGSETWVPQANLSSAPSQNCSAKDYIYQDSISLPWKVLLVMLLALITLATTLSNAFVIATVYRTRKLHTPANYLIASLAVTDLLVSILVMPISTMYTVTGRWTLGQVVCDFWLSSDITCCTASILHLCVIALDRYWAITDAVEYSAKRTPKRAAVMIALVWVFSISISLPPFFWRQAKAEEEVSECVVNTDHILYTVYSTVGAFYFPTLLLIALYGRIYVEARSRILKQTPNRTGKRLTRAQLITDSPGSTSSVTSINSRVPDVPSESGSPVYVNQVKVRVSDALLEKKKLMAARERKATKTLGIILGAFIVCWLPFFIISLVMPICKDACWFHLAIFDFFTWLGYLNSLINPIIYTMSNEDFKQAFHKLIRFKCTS

[5] = molecular target: Recombinant human dopaminergic receptor D2L (Homo sapiens, UniProt P14416); experiment: GTPγS functional assay; assay type: biochemical; settings: in words
Recombinant human dopaminergic receptor D2L, sequence (P14416 whole entry): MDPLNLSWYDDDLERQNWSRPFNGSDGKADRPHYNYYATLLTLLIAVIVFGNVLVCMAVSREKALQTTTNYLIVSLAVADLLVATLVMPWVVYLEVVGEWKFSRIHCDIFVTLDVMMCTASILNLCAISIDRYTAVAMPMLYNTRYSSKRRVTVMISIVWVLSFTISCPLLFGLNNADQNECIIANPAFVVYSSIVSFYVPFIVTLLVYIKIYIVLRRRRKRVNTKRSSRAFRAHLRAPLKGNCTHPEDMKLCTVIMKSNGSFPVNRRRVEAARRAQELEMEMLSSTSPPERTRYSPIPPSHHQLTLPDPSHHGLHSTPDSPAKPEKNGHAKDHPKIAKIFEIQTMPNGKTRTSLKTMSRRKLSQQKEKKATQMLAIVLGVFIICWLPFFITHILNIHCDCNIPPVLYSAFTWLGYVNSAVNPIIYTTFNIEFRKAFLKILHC

[6] = molecular target: T3, Recombinant human serotonin receptor 5-HT1A (Homo sapiens, UniProt P08908); experiment: GTPγS functional assay; assay type: biochemical; settings: in words
T3 sequence (P08908 1-422): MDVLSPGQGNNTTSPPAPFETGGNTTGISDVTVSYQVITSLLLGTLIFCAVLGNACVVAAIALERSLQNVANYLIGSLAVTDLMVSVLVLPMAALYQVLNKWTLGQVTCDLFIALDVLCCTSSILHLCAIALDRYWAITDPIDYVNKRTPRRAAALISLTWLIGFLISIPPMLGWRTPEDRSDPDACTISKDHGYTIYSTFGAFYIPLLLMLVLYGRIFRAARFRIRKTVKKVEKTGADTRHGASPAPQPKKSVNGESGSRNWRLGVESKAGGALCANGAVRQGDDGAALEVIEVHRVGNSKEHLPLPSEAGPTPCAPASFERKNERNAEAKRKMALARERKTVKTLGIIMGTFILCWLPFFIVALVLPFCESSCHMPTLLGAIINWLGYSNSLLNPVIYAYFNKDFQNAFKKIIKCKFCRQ

[7] = molecular target: Recombinant human dopaminergic receptor D3 (Homo sapiens, UniProt P35462); experiment: GTPγS functional assay; assay type: biochemical
Recombinant human dopaminergic receptor D3, sequence (P35462 whole entry): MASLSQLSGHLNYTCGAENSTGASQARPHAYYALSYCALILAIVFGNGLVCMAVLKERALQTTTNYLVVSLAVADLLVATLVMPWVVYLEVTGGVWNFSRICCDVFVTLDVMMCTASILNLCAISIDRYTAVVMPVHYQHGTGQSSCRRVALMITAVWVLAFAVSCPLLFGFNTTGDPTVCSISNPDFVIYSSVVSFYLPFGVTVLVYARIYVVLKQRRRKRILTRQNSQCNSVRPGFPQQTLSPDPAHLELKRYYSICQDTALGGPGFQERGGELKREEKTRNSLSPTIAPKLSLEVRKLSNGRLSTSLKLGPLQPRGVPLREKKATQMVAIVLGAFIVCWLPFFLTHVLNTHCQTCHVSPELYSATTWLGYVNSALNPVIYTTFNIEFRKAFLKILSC

T1 sequence (P41595 whole entry): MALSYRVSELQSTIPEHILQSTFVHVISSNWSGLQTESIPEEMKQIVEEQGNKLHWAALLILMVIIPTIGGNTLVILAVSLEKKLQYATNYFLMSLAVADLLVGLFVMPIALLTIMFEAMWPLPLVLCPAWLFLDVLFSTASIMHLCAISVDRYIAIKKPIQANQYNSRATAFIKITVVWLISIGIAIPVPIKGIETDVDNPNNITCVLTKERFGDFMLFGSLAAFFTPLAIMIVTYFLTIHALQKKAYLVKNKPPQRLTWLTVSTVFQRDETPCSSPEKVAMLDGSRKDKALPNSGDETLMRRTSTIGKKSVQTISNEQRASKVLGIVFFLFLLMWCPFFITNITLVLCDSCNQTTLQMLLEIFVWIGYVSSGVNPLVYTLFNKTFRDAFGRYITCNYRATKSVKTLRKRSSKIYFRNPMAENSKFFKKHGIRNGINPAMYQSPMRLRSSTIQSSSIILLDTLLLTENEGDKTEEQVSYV

**Q.** With CN1C[C@@H](NC(=O)N(CC(F)(F)F)CC(F)(F)F)C=C2c3cccc4[nH]cc(c34)C[C@H]21 [Compound 5A] as the compound, how does the pIC50 ([1]; antagonist mode, 0.005 nM to 10,000 nM, read-out: 5-HT2B antagonism activity, 1050) read?
**A.** 6.72

**Q.** And the 5-HT2B receptor activity ([1]; in words)?
**A.** 5-HT2B antagonist

**Q.** What about the pEC50 ([2]; agonist mode, 0.10 nM to 20,000 nM) of the same compound?
**A.** 5.30

**Q.** What about the “5-HT2A receptor agonist activity” value ([2]; in words, compared to lisuride) of the same compound?
**A.** weak 5-HT2A receptor agonist activity

**Q.** What about the “selectivity for 5-HT1D to 5-HT1B” value ([3]; ratio of EC50 values) of the same compound?
**A.** 20 fold

**Q.** And the pEC50 ([3]; read-out: 5-HT1D agonism, EC50)?
**A.** 7.82

**Q.** And the pEC50 [4]?
**A.** 6.54

**Q.** What about the “D2L agonist activity (Emax) compared to lisuride” value [5] of the same compound?
**A.** comparable D2L agonist activity (Emax)

**Q.** And the “agonistic activity towards the 5-HT1A receptor” value [6]?
**A.** weak/moderate agonistic activity

**Q.** And the pEC50 ([7]; 0.005 nM to 10,000 nM, read-out: agonist activity towards the dopaminergic D3 receptor, EC50)?
**A.** 7.57

**Q.** What about the “dopaminergic receptor D3 agonism” value ([7]; in words, compared to lisuride) of the same compound?
**A.** weaker dopaminergic receptor D3agonism

— patent publication US8946420B2, “Neuromodulatory compounds” (Map Pharmaceuticals, Inc., priority 2011, dated 2015)
